Several values for one entry are separate records, joined by “and”; a condition that tells them apart may be missing. Equal values may be shown once. Entries after “also recorded” stand apart in the source; their conditions may differ. No end group written: not given here.
How the values were obtained:
EAE mouse model = experiment: EAE disease severity, daily clinical score; assay type: in vivo, mice
Experimental: Female C57BL/6 mice were obtained and housed at Biomedical Research Models (Worcester, Mass.)
(§1) At 7-8 weeks of age, mice were immunized with […] emulsion (Hooke Laboratories #EK-2110 provided pre-formulated). Mice received pertussis toxin (Hooke Laboratory, Cat #EK-2110 provided lyophilized) reconstituted in phosphate buffered saline (PBS) at the time of immunization (day 0; 75 ng) and on day 2 (200 ng). Animals were scored daily for disease severity: 0=normal, 1=tail paralysis, 2=tail paralysis and strong hind limb weakness, 3=complete hind limb paralysis, 4=hind limb and forelimb paralysis, 5=found dead.
(§2) At the onset of EAE (the first day with a score of 1 or greater), subcutaneous alzet pumps (DURECT Corporation, Cupertino, Calif.) were inserted and the animals were randomly assigned to receive either porcine relaxin (SKY BioHealth, Inc., Eden Prairie, Minn., […]) or placebo treatment (1 μ/Hr PBS), either recombinant porcine relaxin (pRLN, n=8) or placebo (PBS, n=8) at a rate of 0.110/hr. Relaxin (SKY BioHealth, Inc., Eden Prairie, Minn/) was administered at a concentration of 0.25 mg/ml for the remainder of the study. This delivered a standard dose of 0.66 μg/day of pRLN, which is equivalent to the identified effective dose of 30 μg/KG body weight/day (Hasse et al, 2014). Statistical analysis was done using the t-test and P values <0.05 were considered to be statistically significant.

CCR2 = experiment: RT-PCR of spinal cord, CCR2 expression; assay type: in vivo, mice
Experimental: as §1
(§3) At the onset of EAE (the first day with a score of 1 or greater), subcutaneous alzet pumps (DURECT Corporation, Cupertino, Calif.) were inserted and the animals were randomly assigned to receive either porcine relaxin (SKY BioHealth, Inc., Eden Prairie, Minn., 66.0 μg/day) or placebo treatment (1 μ/Hr PBS), either recombinant porcine relaxin (pRLN, n=8) or placebo (PBS, n=8) at a rate of 0.110/hr. […]
(§4) β-actin. Alternatively RT-PCR for the chemokine receptors (CCR); CCR2, CCR5, CCR7, the interleukins (IL-6 and IL-17) were analyzed using quantitect primers (table 2) and SYBR green based RT-PCR kits (Qiagen, Valencia, Calif.). For histology, spinal cords sections were stained using luxol fast blue-periodic acid shiff for semi-quantitative analysis of infiltration and demyelination.

CCR5 = experiment: RT-PCR of spinal cord, CCR5 expression; assay type: in vivo, mice
Experimental: as §1, §3, §4

CCR7 = experiment: RT-PCR of spinal cord, CCR7 expression; assay type: in vivo, mice
Experimental: as §1, §3, §4

IL-6 = experiment: RT-PCR of spinal cord, IL-6 expression; assay type: in vivo, mice; conditions: for change of spinal cord IL-6 expression vs placebo: EAE mice, in words
Experimental: as §1, §2
(§5) Spinal cords and brains were collected for RT-PCR and histopathology. Total RNA was isolated from spinal cord and brain tissue using the RNeasy mini-kit protocol (Qiagen; Valencia, Calif.) and converted to cDNA using oligo(dT), random hexamers, and Superscript RT II (Invitrogen; Grand Island, N.Y.). […]
as §4

IL-10 = experiment: RT-PCR of spinal cord, IL-10 expression; assay type: in vivo; conditions: EAE mice, in words (FIG. 3)
Experimental: as §1, §2
(§6) Spinal cords and brains were collected for RT-PCR and histopathology. […]

IL-17 = experiment: RT-PCR of spinal cord, IL-17 expression; assay type: in vivo, mice; conditions: for change of spinal cord IL-17 expression vs placebo: EAE mice, in words
Experimental: as §1, §2, §5, §4

MIR2 = experiment: Spinal cord expression of MIR2; assay type: in vivo; conditions: EAE mice, in words (FIG. 3)
Experimental: as §1, §2, §6

myelin = experiment: Kiernan's eriochrome cyanin stain of spinal cord for myelin; assay type: in vivo; conditions: EAE mice, vs untreated (loss of myelin)
Experimental: (§7) For alternative histology, spinal cords were formalin fixed and paraffin embedded (FFPE) as described by Canene-Adams [Canene-Adams, 2013]. Briefly, Spinal cords were rinsed in PBS to remove blood and fixed in 10% formalin for 48 hours at room temperature. Tissues were then transferred to 70% ethanol (ETOH) for 1 hour, 95% ETOH (95% ETOH/5% methanol) for 1 hour, then incubated in four absolute ETOH baths first for 1 hour, then 2 for 1½ hours, followed by a fourth for 2 hours. Tissues were then cleared with two xylene baths for 1 hour each. Tissues were then incubated in two paraffin baths at 58° C. for 1 hour each. Tissues were then removed and placed in cassettes.
(§8) The FFPE tissues were sectioned into […] slices on a microtome. Slices were transferred to glass slides and warmed to 65° C. for 20 minutes to bond the tissue to the glass.
(§9) Sections were stained with Kiernan's eriochrome cyanin for myelin [Kiernan J A, 1999], cluster of differentiation 68 (CD68) for macrophages [Holness and Simmons, 1993], neurofilaments [Alberts, B. 2002] and glial fibrillary acidic protein (GFAP) [Jacque C M, et al, 1978].
Kiernan's stain for myelin was done as described. First tissues were placed in a solution containing eriochrome cyanine R, ferric chloride and sulphuric acid in water for 20 minutes. Rinsed briefly under tap water and differentiated with aqueous ferric chloride (5.6%). […]

[1] = test system: inflammation and Wallerian degeneration of the spinal cord; experiment: H&E staining of spinal cord; assay type: in vivo; conditions: EAE mice, vs untreated
Experimental: as §7, §8
Staining with Hematoxylin and eosin (H&E) stain was also carried out according to standard protocols.

CD68 = CD68 immunohistochemistry of spinal cord (macrophages); assay type: in vivo; conditions: EAE mice, vs untreated; listed as RLN
Experimental: as §7, §8, §9
(§10) Standard immunohistochemistry [Ramos-vara and Miller, 2014] was used to identify the presence of CD68, neurofilaments and GFAP in the FFPE tissues. Essentially the appropriate antibody directed against the antigen of choice was incubated with the tissue and allowed to bind. […]

neurofilaments = experiment: Neurofilament immunohistochemistry of spinal cord; assay type: in vivo; conditions: EAE mice, vs untreated; listed as RLN
Experimental: as §7, §8, §9, §10

GFAP = GFAP immunohistochemistry of spinal cord (gliosis); assay type: in vivo; conditions: EAE mice, untreated stained positive (extensive gliosis)
Experimental: as §7, §8, §9, §10

spinal cord lesions = experiment: Spinal cord histology, infiltration and demyelination (lesion load); assay type: in vivo; conditions: EAE mice, compared to control animals, data not shown
Experimental: as §4

[2] = limited clinical trials (Smith 2006); cited from earlier work

**Q.** What does the source list for “relaxin: porcine relaxin (SKY BioHealth, Inc.), recombinant porcine relaxin (pRLN), infused by subcutaneous alzet pump (Relaxin B chain QSTNDFIKACGRELVRLWVEICGSVSWGRTAL; Relaxin A chain RMTLSEKCCQVGCIRKDIARLC; ends and bridges not checked; cysteine pairing not given here; UniProt P01348 25-56; P01348 161-182, looked up)”?
**A.** time to marked improvement in clinical score (EAE mouse model; EAE mice, after commencing continuous infusion (FIG. 1a)): ≤ 3 days; clinical score at the end of treatment (EAE mouse model; EAE mice, n=8, scale 0-5, subcutaneous alzet pump from EAE onset, score 2.0 at start, placebo 1.5, listed as RLN): 0.5 and > 0.5; change in clinical score compared to PBS control (EAE mouse model; EAE model animals, FIG. 1a): improvement in clinical score; change of spinal cord CCR2 expression vs PBS/placebo (CCR2; EAE mice, in words): decreased; also recorded: significant reductions; spinal cord expression of CCR2 (CCR2; normalized to β-actin, EAE mice n=8, further studies (FIG. 2b), p<0.05 vs placebo): 0.044 relative units; change of spinal cord CCR5 expression vs PBS/placebo (CCR5; EAE mice, in words): decreased; also recorded: significant reductions; spinal cord expression of CCR5 (CCR5; normalized to β-actin, EAE mice n=8, further studies (FIG. 2b), not significant vs placebo 0.0046): 0.0035 relative units; change of spinal cord CCR7 expression vs PBS/placebo (CCR7; EAE mice, in words): decreased; also recorded: significant reductions; spinal cord expression of CCR7 (CCR7; normalized to β-actin, EAE mice n=8, further studies (FIG. 2b), p<0.05 vs placebo 0.014): 0.003 relative units; change of spinal cord IL-6 expression vs placebo (IL-6): significantly decreased; change of spinal cord IL-6 expression vs placebo (IL-6; listed as RLX): decreased; spinal cord expression of IL-6 (IL-6; normalized to β-actin, EAE mice n=8, further studies (FIG. 4), p<0.05 vs placebo 0.0009): 0.0004 relative units; change of spinal cord IL-10 expression (IL-10): decreased; change of spinal cord IL-17 expression vs placebo (IL-17): significantly decreased; change of spinal cord IL-17 expression vs placebo (IL-17; listed as RLX): decreased; spinal cord expression of IL-17 (IL-17; normalized to β-actin, EAE mice n=8, further studies (FIG. 4), p<0.05 vs placebo 0.00026): 0.000078 relative units; change of spinal cord MIR2 expression (MIR2): increased; change of spinal cord MIR2 expression (MIR2; listed as RLX): increased the expression of the MIR2; myelin in spinal cord sections (myelin): decreases myelination and increases remyelination; myelin in spinal cord sections (myelin; listed as RLN): normal appearing myelin; inflammation and Wallerian degeneration of the spinal cord [1]: decrease in inflammation and Wallerian degeneration; macrophage infiltration of the spinal cord (CD68) (CD68): greater infiltration of macrophages in the untreated samples than in those treated with RLN; also recorded: decreased macrophage infiltration; loss of neurofilament in the spinal cord (neurofilaments): relatively greater loss of neurofilaments compared to mice receiving RLN therapy; also recorded: greater loss of neurofilament in the spinal cords of untreated mice; GFAP staining of spinal cord / gliosis (GFAP): complete lack of gliosis; GFAP staining of spinal cord / gliosis (GFAP; listed as RLN): negative for GFAP; also recorded: did not stain positively for GFAP; lesion load and size in the spinal cord (spinal cord lesions): reduced lesion load and size; severe side effects [2]: no severe side effects

Source: patent publication US11344607B2, “Treatment of disease with relaxin” (BV Biomed Ltd, priority 2015, dated 2022)
